# Results: ChEMBL document CHEMBL4368888, “Design, synthesis and biological evaluation of tryptamine salicylic acid derivatives as potential antitumor agents” (Medchemcomm, 2019)
# What was measured:
# Format in all cases: functional, cell-based
# [1] = system: MGC-803; assay: Antiproliferative activity against human MGC803 cells after 48 hrs by MTT assay; settings: MGC-803, 48 h
# [2] = system: MCF7; assay: Antiproliferative activity against human MCF7 cells after 48 hrs by MTT assay; settings: MCF7, 48 h
# [3] = system: HeLa; assay: Antiproliferative activity against human HeLa cells after 48 hrs by MTT assay
# [4] = system: A549; assay: Antiproliferative activity against human A549 cells after 48 hrs by MTT assay; settings: A549, 48 h
# [5] = system: HepG2; assay: Antiproliferative activity against human HepG2 cells after 48 hrs by MTT assay; settings: HepG2, 48 h
SMILES,IC50 [1] [µM],IC50 [2] [µM],IC50 [3] [µM],IC50 [4] [µM],IC50 [5] [µM]
Cc1ccc(C(=O)NCCc2c[nH]c3ccc(F)cc23)c(O)c1,60,> 100,> 100,> 100,> 100
Cc1ccc2[nH]cc(CCNC(=O)c3ccc(Cl)cc3O)c2c1,47,> 100,93,68,98
O=C(NCCc1c[nH]c2ccccc12)c1ccc(Cl)cc1O,80,> 100,> 100,> 100,> 100
Cc1cccc(C(=O)NCCc2c[nH]c3ccc(F)cc23)c1O,52,> 100,> 100,67,> 100
COc1ccc2[nH]cc(CCNC(=O)c3cc(Cl)ccc3O)c2c1,55,> 100,> 100,> 100,75
Cc1ccc2[nH]cc(CCNC(=O)c3ccccc3O)c2c1,45,93,> 100,> 100,> 100
COc1ccc2[nH]cc(CCNC(=O)c3ccc(Cl)cc3O)c2c1,56,> 100,71,> 100,> 100
Cc1ccc(C(=O)NCCc2c[nH]c3ccccc23)c(O)c1,80,> 100,> 100,> 100,> 100
O=C(NCCc1c[nH]c2ccc(F)cc12)c1cc(Br)ccc1O,80,> 100,76,77,> 100
O=C(NCCc1c[nH]c2ccccc12)c1cc(Cl)ccc1O,74,> 100,> 100,> 100,> 100
COc1ccc2[nH]cc(CCNC(=O)c3cc(Br)ccc3O)c2c1,62,> 100,74,> 100,> 100
Cc1ccc(C(=O)NCCc2c[nH]c3ccc(Br)cc23)c(O)c1,48,80,61,61,80
Cc1ccc(C(=O)NCCc2c[nH]c3ccc(C)cc23)c(O)c1,38,60,> 100,75,> 100
Cc1ccc(C(=O)NCCc2c[nH]c3ccc(Cl)cc23)c(O)c1,37,73,64,63,> 100
Cc1cccc(C(=O)NCCc2c[nH]c3ccccc23)c1O,63,> 100,82,> 100,> 100
COc1ccc2[nH]cc(CCNC(=O)c3cccc(C)c3O)c2c1,43,97,42,> 100,85
O=C(NCCc1c[nH]c2ccc(Cl)cc12)c1cc(Cl)ccc1O,31,80,80,62,89
Cc1ccc2[nH]cc(CCNC(=O)c3cc(Cl)ccc3O)c2c1,42,79,> 100,89,> 100

SMILES,IC50 [1] [µM],IC50 [2] [µM],IC50 [3] [µM],IC50 [4] [µM],IC50 [5] [µM]
O=C(NCCc1c[nH]c2ccccc12)c1ccccc1O,> 100,> 100,> 100,> 100,> 100
O=C(NCCc1c[nH]c2ccc(F)cc12)c1ccc(Cl)cc1O,62,> 100,> 100,> 100,> 100
O=C(NCCc1c[nH]c2ccc(Cl)cc12)c1ccc(Cl)cc1O,34,69,64,46,90
O=C(NCCc1c[nH]c2ccc(Cl)cc12)c1ccccc1O,35,75,81,60,> 100
O=C(NCCc1c[nH]c2ccc(Br)cc12)c1cc(Cl)ccc1O,63,73,80,63,87
Cc1cccc(C(=O)NCCc2c[nH]c3ccc(Cl)cc23)c1O,56,70,56,48,62
O=C(NCCc1c[nH]c2ccc(Br)cc12)c1ccccc1O,37,80,79,59,> 100
O=c1[nH]cc(F)c(=O)[nH]1 [FLUOROURACIL],58,,50,> 100,68
O=C(NCCc1c[nH]c2ccc(F)cc12)c1ccccc1O,63,> 100,> 100,> 100,> 100
O=C(NCCc1c[nH]c2ccc(F)cc12)c1cc(Cl)ccc1O,53,> 100,> 100,53,> 100
O=C(NCCc1c[nH]c2ccc(Br)cc12)c1cc(Br)ccc1O,80,> 100,> 100,62,> 100
Cc1ccc2[nH]cc(CCNC(=O)c3cccc(C)c3O)c2c1,38,62,61,50,64
O=C(NCCc1c[nH]c2ccccc12)c1cc(Br)ccc1O,78,> 100,> 100,> 100,> 100
COc1ccc2[nH]cc(CCNC(=O)c3ccccc3O)c2c1,59,> 100,82,> 100,> 100
O=C(NCCc1c[nH]c2ccc(Br)cc12)c1ccc(Cl)cc1O,43,98,71,63,92
O=C(NCCc1c[nH]c2ccc(Cl)cc12)c1cc(Br)ccc1O,35,75,85,63,> 100
COc1ccc2[nH]cc(CCNC(=O)c3ccc(C)cc3O)c2c1,59,> 100,80,> 100,80
Cc1ccc2[nH]cc(CCNC(=O)c3cc(Br)ccc3O)c2c1,61,89,> 100,80,93
